Residue numbers refer to the chain shown, from its start.
How the values were obtained:
P2X7-G150R = target: T1, P2X7-G150R (Homo sapiens, UniProt Q99572, G150R); test: YO-PRO-1 uptake fluorimetric plate assay in transfected HEK 293 cells, P2X7-G150R; assay type: cell-based; conditions: G150R (G474A) mutant, also in more permissive buffer lacking NaCl
T1 construct: expressed in transfected cells
T1 sequence (Q99572 1-595 G150R): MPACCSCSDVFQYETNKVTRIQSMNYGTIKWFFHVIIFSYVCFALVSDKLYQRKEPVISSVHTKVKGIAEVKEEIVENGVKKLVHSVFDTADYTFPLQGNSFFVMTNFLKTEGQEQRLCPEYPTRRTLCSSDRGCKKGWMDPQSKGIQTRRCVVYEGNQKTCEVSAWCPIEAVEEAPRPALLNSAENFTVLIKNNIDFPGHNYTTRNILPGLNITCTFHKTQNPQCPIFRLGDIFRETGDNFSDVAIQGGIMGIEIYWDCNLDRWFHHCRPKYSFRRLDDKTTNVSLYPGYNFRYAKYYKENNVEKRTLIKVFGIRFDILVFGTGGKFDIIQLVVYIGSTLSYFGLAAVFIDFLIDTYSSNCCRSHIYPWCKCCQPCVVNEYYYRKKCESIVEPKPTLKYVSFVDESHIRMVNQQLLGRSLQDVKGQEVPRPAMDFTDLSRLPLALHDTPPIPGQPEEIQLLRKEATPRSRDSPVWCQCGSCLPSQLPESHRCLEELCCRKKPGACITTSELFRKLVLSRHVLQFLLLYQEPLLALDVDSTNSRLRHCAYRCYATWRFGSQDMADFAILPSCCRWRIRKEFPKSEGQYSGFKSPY
Text: (§1) Recombinant Expression and Functional Characterization of Variant P2RX7 Alleles. A pcDNA3 expression vector containing a cloned human P2RX7 cDNA associated with normal pore activity was subjected to point mutagenesis using the Quick Change Kit (Stratagene Inc., city, state) to create the variants P2X7-G150R, P2X7-Q460R, and P2X7-E496A. HEK 293 cells were transfected by the Superfect liposomal method and stable populations were selected by G418 resistance. Expression of P2X7 mRNA and protein in unstimulated transfected HEK cell cultures was verified by RT-PCR and immunoblotting as previously described.
(§2) YO-PRO-1 fluorescence was measured by a Synergy-HT fluorescent plate reader (Biotek, city, state) using X±Y nm excitation and A±B emission filters.

P2X7-Q460R = target: T2, P2X7-Q460R (Homo sapiens, UniProt Q99572, Q460R); test: YO-PRO-1 uptake fluorimetric plate assay in transfected HEK 293 cells, P2X7-Q460R; assay type: cell-based
T2 construct: expressed in transfected cells
T2 sequence (Q99572 1-595 Q460R): T1 sequence (Q99572 1-595 G150R) with R150G, Q460R
Text: as §1, §2

Substance: 2′-3′-O-(4-benzoylbenzoyl)-adenosine 5′-triphosphate [Bz-ATP]
- agonist stimulated increase in YO-PRO-1 fluorescence (P2X7-G150R): loss of pore function
- agonist stimulated increase in YO-PRO-1 fluorescence (P2X7-G150R; listed as BzATP): no agonist stimulated increase in fluorescence
- EC50 (P2X7-Q460R): ~30 µM
- increase in YO-PRO-1 fluorescence over baseline (P2X7-Q460R): 8 fold

Reference: patent publication US7960131B2, “Functional genomic pore assay for mixed cell populations” (Wisconsin Alumni Research Foundation, priority 2003, dated 2011)
